These compounds were tested against T1, 1-deoxy-D-xylulose 5-phosphate reductoisomerase (Escherichia coli (strain K12), UniProt P45568) (assay: Inhibition Assay). Settings: pH 8; 37 °C.
T1 sequence (P45568 whole entry): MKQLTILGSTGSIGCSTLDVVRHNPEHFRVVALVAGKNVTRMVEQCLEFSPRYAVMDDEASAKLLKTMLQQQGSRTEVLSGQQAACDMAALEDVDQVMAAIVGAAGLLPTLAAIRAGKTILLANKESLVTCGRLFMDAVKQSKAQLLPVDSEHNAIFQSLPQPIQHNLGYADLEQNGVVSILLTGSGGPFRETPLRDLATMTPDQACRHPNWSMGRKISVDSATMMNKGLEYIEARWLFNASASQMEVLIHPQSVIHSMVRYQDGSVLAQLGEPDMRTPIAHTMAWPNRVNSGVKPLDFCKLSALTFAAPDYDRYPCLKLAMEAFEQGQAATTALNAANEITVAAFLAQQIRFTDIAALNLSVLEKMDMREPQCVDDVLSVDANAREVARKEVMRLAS
Procedure: The assay was monitored spectrophotometrically through the consumption of beta-NADPH. The inhibitor assays contained inhibitor at concentrations of 0.1-15 mM cyclic analogues and 5-35 mM phosphonic acid derivates.

| SMILES | Ki [mM] |
| --- | --- |
| NCCCP(=O)(O)O [Phosphate analogue, 8] | 4 |
| CC(=O)NCCCP(=O)(O)O [Phosphate analogue, 9] | 6.5 |
| O=C1N[C@H](COP(=O)(O)O)CO1 [Phosphate analogue, (S)-21] | 4.1 |
| O=C1OC[C@@H](COP(=O)(O)O)N1O [Phosphate analogue, (s)-14] | 0.75 |
